Experimental data as given in PubChem BioAssay AID1996.
≈ marks a conversion by molar mass, not a printed value.

Conditions: buffer; pH 7.4; 200.0 µM

SMILES	solubility kinetic [mg/mL]
NC(=O)c1ccc2nc(-c3ccccc3)c(-c3ccccc3)nc2c1	0.0006 (≈ 1.84 µM)
Cc1cc(C(=O)O/N=C(\N)c2ccc(C(C)(C)C)cc2)no1	0.0029 (≈ 9.62 µM)
CCOc1ccc(NC(=O)CN2C(=O)NC(CCc3ccccc3)C2=O)cc1OCC (centres undefined)	0.0088 (≈ 20.7 µM)
O=C(Nc1ccc(O)cc1)/C(=C/c1ccco1)NC(=O)c1ccccc1	> 0.0523
CN(CCc1ccccn1)c1ccc([N+](=O)[O-])cn1	0.0381 (≈ 148 µM)
Cc1ccsc1C(=O)OCC(=O)NC1CCCCC1C (centres undefined)	0.012 (≈ 40.6 µM)
COc1ccc(C(=O)N2CCCC(Nc3ccc(C)c(C)c3)C2)cc1 (centres undefined)	0.0405 (≈ 120 µM)
Nc1ccc(S(=O)(=O)Nc2nc3ccccc3o2)cc1	> 0.0434
NC(=O)NC(CC(=O)NCCc1ccccn1)c1ccccc1Cl (centres undefined)	> 0.052
Cc1ccc(NC(=O)NC(=O)c2ccccc2)cc1F	< 0.0003
O=C(CN1C(=O)c2ccccc2C1=O)Oc1ccc(Cl)cc1	0.028 (≈ 88.7 µM)
Cc1[nH]c(=O)c(S(=O)(=O)c2ccccc2)c(C)c1Cl	0.0442 (≈ 148 µM)
Cc1ccc2c(c1)C(=O)OC1(O)C3C4C=CC(C4)C3C(=O)N21 (centres undefined)	> 0.0446
Cc1ccnc(NC(=O)CNC(=O)c2ccc(C)s2)c1	> 0.0434
CCC(C)c1c(O)nc(SCC(=O)N2CCCCC2)[nH]c1=O (centres undefined)	> 0.0488
COc1cccc(NC(=S)Nc2cc(C)cc(C)n2)c1	0.0003 (≈ 1.04 µM)
CCCCN(C(=O)C1CCCO1)c1c(N)n(CCC)c(=O)[nH]c1=O (centres undefined)	> 0.0508
COc1ccc(CNc2ccccn2)c(O)c1	> 0.0345
CCc1cc(C(=O)Nc2ccccc2N2CCOCC2)sc1C	0.0022 (≈ 6.66 µM)
O=C(C[n+]1cccc(O)c1)NCc1ccc(Cl)cc1.[Cl-]	> 0.047

SMILES	solubility kinetic [mg/mL]
Cc1cc(Cl)cc(Cl)c1OCCN1CCCC1	0.0302 (≈ 110 µM)
O=c1c2ccccc2nc(-c2ccccc2)n1-c1ccccc1	0.0436 (≈ 146 µM)
Cn1c(N)c(C(=O)Nc2ccccc2F)sc1=S	0.0044 (≈ 15.5 µM)
CCCCOC(=O)c1ccc(NC(=O)C(=O)NCc2ccccn2)cc1	0.0008 (≈ 2.25 µM)
COc1ccc(CN2CCc3c([nH]c4ccccc34)C2)cc1Br	0.0098 (≈ 26.4 µM)
COc1ccc(OCCC(=O)OCC(=O)NC2CCCCC2)cc1	0.037 (≈ 110 µM)
O=C(CCNc1ccccc1)c1cccc([N+](=O)[O-])c1	0.0327 (≈ 121 µM)
C=CCNC(=O)c1ccc(-c2nc3ccccc3nc2-c2ccccc2)cc1	0.0117 (≈ 32 µM)
O=C(CCCOc1ccc(Cl)cc1Cl)Nc1ncccn1	0.0077 (≈ 23.6 µM)
Cn1cc(CCC(=O)NCc2ccc(Cl)cc2)c2ccccc21	0.0022 (≈ 6.73 µM)
COC(=O)CN1C(=O)c2cccc3cccc1c23	> 0.0362
CCCCN1C(C)=CC(=C2C(=O)c3ccccc3C2=O)C=C1C	< 0.0007
CC1(c2ccccc2)NC(=O)N(CC(=O)Nc2ccc3c(c2)CCC3)C1=O (centres undefined)	0.0038 (≈ 10.5 µM)
CC(=O)N1CCC2(CC1)NC(=O)N(c1ccccc1)N2	> 0.0411
COc1ccc(CC(=O)NCc2nc(-c3ccccc3)no2)cc1	0.0134 (≈ 41.4 µM)
OCC1OC(n2cnc3c(NCCc4ccccc4)ncnc32)C(O)C1O (centres undefined)	> 0.0557
O=C(c1ccncc1)N1CCN(S(=O)(=O)c2ccc(F)cc2)CC1	> 0.0524
CC1(C2CC2)NC(=O)N(CC(=O)Nc2ccc(F)cc2F)C1=O (centres undefined)	> 0.0485
O=C(OCN1C(=O)C(=O)c2ccccc21)c1ccc(Cl)cc1	0.044 (≈ 139 µM)
Cc1ccn2cc(CCNC(=O)COc3ccccc3)nc2c1	0.0406 (≈ 131 µM)

SMILES	solubility kinetic [mg/mL]
NS(=O)(=O)c1ccc(CNc2ncnc3sccc23)cc1	> 0.0481
CCOc1cc(CNCc2ccccn2)cc(Cl)c1OCC.Cl	0.0355
CCOC(=O)N1CCc2[nH]c3ccc(C)cc3c2C1	0.0159 (≈ 61.6 µM)
CC(=O)c1c(C)[nH]c(C(=O)Nc2cccc(C#N)c2)c1C	0.0108 (≈ 38.4 µM)
Cc1ccc2[nH]cc(CCNC(=O)c3ccco3)c2c1	0.0381 (≈ 142 µM)
COc1cc(C)cc(CN2CCC(Cc3ccccc3)CC2)c1O	0.0445 (≈ 137 µM)
CN(CCO)CC(O)Cn1cnc2c1c(=O)n(C)c(=O)n2C.O=C(O)c1cccnc1 (centres undefined)	> 0.0652
O=C(COC(=O)c1cccnc1Cl)c1ccc(Cl)s1	> 0.0474
O=C(COC(=O)c1ccncc1)c1ccc(Br)cc1	0.044 (≈ 137 µM)
COC(=O)N1CCCc2cc(C)ccc21	0.0155 (≈ 75.5 µM)
COc1ccccc1NC(=O)[C@@H]1CCCN1S(=O)(=O)c1ccc(Cl)cc1	0.0324 (≈ 82.1 µM)
CCOC(=O)/C(C#N)=C/c1cccc(F)c1	0.0286 (≈ 130 µM)
CCOc1ccc(CN(C)C(C)C(=O)NCc2ccccc2)cc1 (centres undefined)	> 0.049
O=C(COC(=O)c1ccc([N+](=O)[O-])o1)NCc1ccc(F)cc1	> 0.0483
Cc1c(NC(=S)NC(=O)c2ccc(Cl)cc2)c(=O)n(-c2ccccc2)n1C	> 0.0601
COC(=O)C[N+](C)(C)C/C=C\c1ccccc1.[Br-]	> 0.0471
COc1ccc(CCNC(=O)COC(=O)/C=C/c2cccc(F)c2)cc1	0.0054 (≈ 15.1 µM)
CN(CC(O)Cn1cnc2c1c(=O)n(C)c(=O)n2C)c1ccccc1 (centres undefined)	> 0.0515
O=C(Cn1cc([N+](=O)[O-])ccc1=O)N1CCCc2ccccc21	> 0.047
